# Tests used:
# Hs27 = assay: Uptake of AS1411 by macropinocytosis (MP); assay type: cell-based, human; settings: Non-cancer, skin fibroblasts
# Experimental: FIG. 2 are graphs showing that AS1411 is internalized by different endocytic mechanisms in DU145 cancer cells and in non-malignant Hs27 cells. DU145 or Hs27 cells were plated 18 h before uptake analysis. Cells were pre-treated as described with inhibitor (gray histogram) or the corresponding vehicle control (black histogram) before addition of 10 μM FL-AS1411 and incubation at 37° C. for 2 h. After incubation, cells were harvested and analyzed by flow cytometry. Pre-treatment conditions were at 37° C. with: (Panel A) 5 μM Cytochalasin D for 30 min; (Panel B) 80 μM Dynasore for 30 min; or (Panel C) 3 mM amiloride for 1 h. All experiments were repeated at least three times and representative data are shown. Solid gray histograms represent background autofluorescence of unstained cells.
# To analyze uptake of the oligodeoxynucleotides or dextran-10K (macropinocytic marker) by flow cytometry, 2×10^5 cells in fresh supplemented culture medium (2.5 ml) were plated into 6-well plates for 18 h. After complete adhesion, the cells were incubated with 5′-FAM tagged oligodeoxynucleotides or Alexa Fluor 488 tagged dextran-10K and incubated as indicated in the Description of the Drawings. Cells were washed once with ice-cold PBS, incubated with 1 μg/ml 7-amino-actinomycin D (7-AAD) for 5 min on ice or 1 μg/ml propidium iodide (PI), and washed twice with ice-cold PBS. […]
# A549 = assay: Stimulation of macropinocytosis (dextran uptake); assay type: cell-based; settings: Cancer, non-small cell lung
# Text: (§1) It has recently been discovered that AS1411 can stimulate macropinocytosis (MP) in cancer cells and this finding was verified by several different methods and in multiple cancer cell lines (Table 1).
# BEAS2B = assay: Stimulation of macropinocytosis (dextran uptake); assay type: cell-based; settings: Non-cancer, lung epithelial
# Text: as §1
# CHO = assay: Stimulation of macropinocytosis (dextran uptake); assay type: cell-based; settings: Non-cancer, hamster ovary
# Text: as §1
# RCC4 = assay: Stimulation of macropinocytosis (dextran uptake); assay type: cell-based; settings: Cancer, renal cell
# Text: as §1
# RWPE1 = assay: Stimulation of macropinocytosis (dextran uptake); assay type: cell-based; settings: Non-cancer, prostate epithelial
# Text: as §1
# SK-N-DZ = assay: Stimulation of macropinocytosis (dextran uptake); assay type: cell-based; settings: Cancer, neuroblastoma
# Text: as §1
# DU145 cells [1] = assay: Cell death / cytotoxicity; assay type: cell-based
# several cell lines = assay: Annexin V / PI flow cytometry to assess cell death; assay type: cell-based
# Experimental: (A) Trypan blue staining of U937 leukemia cells showing percentage of dead cells (trypan blue positive) over time. (B) U937 cells were untreated (Un) or treated with 1 μM AS1411 (1411) or control oligonucleotide (Ctrl) for 72 h. DNA was extracted, electrophoresed on an agarose gel and stained with ethidium bromide to probe DNA laddering. As a positive control, […] were treated with UV irradiation to induce apoptosis as previously described. […] (D) U937 cells treated as described for panel B, followed by protein extraction and immunoblotting (IB) to detect PARP cleavage and Caspase-3 activation. (E) DU145 prostate cancer cells were incubated with 10 μM of AS1411 for 24 h, or irradiated with UV (300 J/m^2 with UV Stratalinker 2400, Strategene), then cultured in fresh medium for 6 h. Assessment of cell death was carried out by flow cytometry to detect Annexin V-FITC binding and PI staining.
# DU145 cells [2] = assay type: cell-based; settings: 4 days, 10 μM AS1411
# Experimental: DU145 cells were incubated for 4 days in the presence of 10 μM AS1411 with 3-MA at the concentration indicated, and cell number was assessed by MTT assay.
# It also appears unlikely that AS1411-induced cell death is due to autophagy. […] Further evidence that supports the idea that AS1411 can induce methuosis comes from the similarity between the appearance of cells treated with AS1411 and published images of glioblastoma cells undergoing Ras-induced methuosis.
# cancer cells = assay: Stimulation of macropinocytosis / induced uptake; assay type: cell-based
# Text: A number of additional G-rich oligonucleotides were obtained and used to evaluate whether or not macropinocytosis was increased in cancer cells using the methodology described herein. For example, the following sequences were used:
# In addition, the G-rich oligonucleotides disclosed in Dapic et al. (2003, Nuc. Acids Res.,31:2097 -107; KS-A though KS-I) and the G-rich oligonucleotides (e.g., telomere homologs, GT oligonucleotides, Stat3 binders, Dz13, and triplex oligonucleotides with aptameric effects) disclosed in Bates et al. (2009, Exp. Mol. Path., 86:151-64) and references therein are shown to stimulate macropinocytosis in cancer cells.
# Furthermore, due to the unique properties of MPsomes, delivery by MP leads to increased functional activity. Thus, treatment with AS1411, followed by administration of an anticancer siRNA, for example, leads to a synergistic increase in anticancer effects without harming normal cells. Another strategy to potentiate the effects of AS1411 is to combine it with agents that promote MP and activation of Rac. This leads to increased macropinocytic uptake of AS1411 and/or enhanced methuosis.
substance,measurement,setting,value
5′-d(GGTGGTGGTGGTTGTGGTGGTGGTGG) [AS1411],Update by MP?,Hs27,No
same,Stimulate MP?,A549,Yes
same,Stimulate MP?,BEAS2B,No
same,Stimulate MP?,CHO,No
same,Stimulate MP?,RCC4,Yes
same,Stimulate MP?,RWPE1,No
same,Stimulate MP?,SK-N-DZ,Yes
same,timing of cell death,DU145 cells [1]; 40 μM AS1411,within hours
same,cytotoxicity at higher concentrations,"DU145 cells [1]; concentrations higher than 40 μM, early time point (2 h)",apparent cytotoxicity
same,Annexin V / PI quadrant in which cells appear,several cell lines,Annexin V-positive/propidium iodide (PI)-positive quadrant (indicative of necrosis)
same,effect in combination with 3-MA,DU145 cells [2],additive
same,induced uptake from the culture medium after pre-treatment,cancer cells,"induced uptake of dextran, AS1411, or transferrin (by MP)"

# — patent US20130065227A1, “METHODS OF INCREASING MACROPINOCYTOSIS IN CANCER CELLS” (priority 2010, published 2013)
